The record followed here is PubChem BioAssay AID328 (DTP/NCI, 2004).

Several values for one entry are separate records, joined by “and”; a condition that tells them apart may be missing. Identical values can stand only once. Toxic doses and inconclusive results are not listed. Non-standard residues stand in square brackets, D forms with d. Residues, ends and D or L forms follow the SMILES beside them. ξ: configuration not given here. *: point of attachment. ξF = NC(Cc1ccccc1)C(=O)O; ClAc = O=C(CCl)*

The test system of the assay is BDF1 mice, P388 leukemia ip, median survival T/C. The assay is described as follows: NCI In Vivo Anticancer Drug Screen. Data for tumor model P388 Leukemia (intraperitoneal) in B6D2F1 (BDF1) mice. Particulars: endpoint: median survival time, higher = longer survival. The method, boiled down: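 Transplantable tumour in mice; compound vs vehicle dosing; survival scored; ratio of treated to control reported.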

The mark [1] stands for this setting: dose: 200.0 mg/kg/injection, schedule: Q04DX003 (ip), vehicle: Klucel (hydroxypropylcellulose) (HPC).
The mark [2] stands for this setting: dose: 100.0 mg/kg/injection, schedule: Q04DX003 (ip), vehicle: Klucel (hydroxypropylcellulose) (HPC).
Setting [3] is: dose: 400.0 mg/kg/injection, schedule: Q04DX003 (ip), vehicle: Klucel (hydroxypropylcellulose) (HPC).
The mark [4] stands for this setting: dose: 50.0 mg/kg/injection, schedule: Q04DX003 (ip), vehicle: water.
[5] abbreviates: dose: 50.0 mg/kg/injection, schedule: Q04DX003 (ip), vehicle: saline with Tween-80.
[6] abbreviates: dose: 100.0 mg/kg/injection, schedule: Q04DX003 (ip), vehicle: saline with Tween-80.
Setting [7] is: dose: 200.0 mg/kg/injection, schedule: Q04DX003 (ip), vehicle: saline with Tween-80.
Setting [8] is: dose: 25.0 mg/kg/injection, schedule: Q01DX009 (ip), vehicle: saline with Tween-80.
Setting [9] is: dose: 50.0 mg/kg/injection, schedule: Q01DX009 (ip), vehicle: saline with Tween-80.
Where [10] appears, read: dose: 100.0 mg/kg/injection, schedule: Q01DX009 (ip), vehicle: saline with Tween-80.
The mark [11] stands for this setting: dose: 400.0 mg/kg/injection, schedule: Q04DX003 (ip), vehicle: saline with Tween-80.

As to `C=CC[n+]1cccc2ccccc21`, the T/C (dose: 6.25 mg/kg/injection, schedule: Q04DX003 (ip), vehicle: saline) was 100 % of control; the T/C (dose: 12.5 mg/kg/injection, schedule: Q01DX009 (ip), vehicle: Klucel (hydroxypropylcellulose) (HPC)) is 86 % of control; the T/C (dose: 12.5 mg/kg/injection, schedule: Q04DX003 (ip), vehicle: saline) was 95 % of control; the T/C (dose: 25.0 mg/kg/injection, schedule: Q01DX009 (ip), vehicle: Klucel (hydroxypropylcellulose) (HPC)) is 90 % of control; the T/C (dose: 25.0 mg/kg/injection, schedule: Q04DX003 (ip), vehicle: saline) was 109 % of control.
In the case of `FC(F)(F)c1nc2nccnc2[nH]1`, the T/C was 100 % of control (dose: 50.0 mg/kg/injection, schedule: Q01DX009 (ip), vehicle: saline); 100 % of control (dose: 100.0 mg/kg/injection, schedule: Q01DX009 (ip), vehicle: saline); 108 % of control (dose: 200.0 mg/kg/injection, schedule: Q01DX009 (ip), vehicle: saline); 88 % of control under setting [1].
Regarding `c1ccc(-c2c[nH]c(-c3ccccc3)c2)cc1`, the T/C under setting [2] is 104 % of control, the T/C under setting [1] is 109 % of control and the T/C under setting [3] was 109 % of control.
Turning to `CCCC1CC[N-]CC1.CCCC1CC[N-]CC1.[Cl][Co][Cl]`, the T/C was 91 % of control and 100 % of control (dose: 12.5 mg/kg/injection, schedule: Q01DX009 (ip), vehicle: water); 116 % of control (dose: 25.0 mg/kg/injection, schedule: Q01DX009 (ip), vehicle: water); 112 % of control (dose: 50.0 mg/kg/injection, schedule: Q01DX009 (ip), vehicle: water); 120 % of control under setting [4].
Consider `O=c1[nH]nc(CF)c(=O)[nH]1`, for which the T/C (dose: 3.0 mg/kg/injection, schedule: Q01DX009 (ip), vehicle: saline) was 100 % of control and 109 % of control; the T/C (dose: 6.0 mg/kg/injection, schedule: Q01DX009 (ip), vehicle: saline) is 118 % of control; the T/C (dose: 12.0 mg/kg/injection, schedule: Q01DX009 (ip), vehicle: saline) was 150 % of control; the T/C (dose: 24.0 mg/kg/injection, schedule: Q01DX009 (ip), vehicle: saline) is 154 % of control and 172 % of control.
Take `NC(=O)c1c(Cl)nc(-c2cccc([N+](=O)[O-])c2)c([N+](=O)[O-])c1C(F)(F)F`: the T/C by setting is: (dose: 50.0 mg/kg/injection, schedule: Q01DX005 (ip), vehicle: saline with Tween-80) 87 % of control; (dose: 100.0 mg/kg/injection, schedule: Q01DX005 (ip), vehicle: saline with Tween-80) 115 % of control; (dose: 200.0 mg/kg/injection, schedule: Q01DX005 (ip), vehicle: saline with Tween-80) 112 % of control.
With `O=C(CCl)NCC(=O)NC(Cc1ccccc1)C(=O)O` (centres undefined) (ClAc-Gly-[ξF]-OH), the T/C is, setting by setting: under setting [5], 109 % of control; under setting [6], 109 % of control; under setting [7], 90 % of control.
In the case of `O=[N+]([O-])c1cc([N+](=O)[O-])c(NN(c2ccccc2)c2cccc3ccccc23)c([N+](=O)[O-])c1`, the T/C is 91 % of control under setting [2], 116 % of control under setting [1] and 87 % of control under setting [3].
Regarding `COc1cc(OC)cc(C(=O)N2CC2)c1`, the T/C (dose: 6.25 mg/kg/injection, schedule: Q04DX003 (ip), vehicle: water) is 105 % of control; the T/C (dose: 12.5 mg/kg/injection, schedule: Q04DX003 (ip), vehicle: water) was 98 % of control; the T/C (dose: 25.0 mg/kg/injection, schedule: Q04DX003 (ip), vehicle: water) is 105 % of control; the T/C under setting [4] was 96 % of control; the T/C (dose: 100.0 mg/kg/injection, schedule: Q04DX003 (ip), vehicle: water) is 107 % of control; the T/C (dose: 200.0 mg/kg/injection, schedule: Q01DX009 (ip), vehicle: water) was 100 % of control. Moreover, the T/C is 100 % of control (dose: 200.0 mg/kg/injection, schedule: Q04DX003 (ip), vehicle: water); 105 % of control (dose: 300.0 mg/kg/injection, schedule: Q01DX009 (ip), vehicle: water); 91 % of control (dose: 400.0 mg/kg/injection, schedule: Q01DX009 (ip), vehicle: water).
In the case of `COc1c(Br)cc(N=Cc2ccc(N(CCCl)CCCl)cc2C)cc1Br`, the T/C was 115 % of control (dose: 88.0 mg/kg/injection, schedule: Q01DX010 (ip), vehicle: carboxymethylcellulose (CMC)); 155 % of control (dose: 133.0 mg/kg/injection, schedule: Q01DX010 (ip), vehicle: carboxymethylcellulose (CMC)); 165 % of control (dose: 200.0 mg/kg/injection, schedule: Q01DX010 (ip), vehicle: carboxymethylcellulose (CMC)); 215 % of control (dose: 300.0 mg/kg/injection, schedule: Q01DX010 (ip), vehicle: carboxymethylcellulose (CMC)).
On to `COc1cc2c(cc1O)CCCCC2=O`, for which the T/C is, setting by setting: under setting [8], 109 % of control; under setting [9], 104 % of control; under setting [10], 104 % of control; under setting [2], 110 % of control; under setting [1], 95 % of control; under setting [3], 90 % of control.
As for `O=C(O)C1C2C=CC(C2)C1C(F)(F)C(F)(F)C(F)(F)F` (centres undefined), the T/C runs as follows: (dose: 100.0 mg/kg/injection, schedule: Q01DX001 (ip), vehicle: saline with Tween-80) 100 % of control; (dose: 200.0 mg/kg/injection, schedule: Q01DX001 (ip), vehicle: saline with Tween-80) 104 % of control; (dose: 400.0 mg/kg/injection, schedule: Q01DX001 (ip), vehicle: saline with Tween-80) 118 % of control.
`CSC(N)=Nc1cccc2c1CCCC2`: the T/C is 108 % of control (dose: 50.0 mg/kg/injection, schedule: Q04DX003 (ip), vehicle: saline) and 108 % of control (dose: 100.0 mg/kg/injection, schedule: Q04DX003 (ip), vehicle: saline).
On to `COC(=O)C(CSCSC)NC(=O)NC1CCCCC1` (centres undefined), for which the T/C by setting is: under setting [6], 95 % of control; under setting [7], 104 % of control; under setting [11], 95 % of control.
Take `C=CCOc1ccccn1`: the T/C under setting [5] is 90 % of control, the T/C under setting [6] is 104 % of control and the T/C under setting [7] was 113 % of control.
As for `C=CCc1ccc(OCCOC(=O)Nc2cccc(SC)c2)c(OC)c1`, the T/C reads like this: (dose: 12.5 mg/kg/injection, schedule: Q01DX009 (ip), vehicle: DMSO) 90 % of control; (dose: 25.0 mg/kg/injection, schedule: Q01DX009 (ip), vehicle: DMSO) 107 % of control; (dose: 50.0 mg/kg/injection, schedule: Q01DX009 (ip), vehicle: DMSO) 93 % of control.
For the compound `Cc1cc(-c2ccccc2)[s+]s1`, the T/C was 122 % of control under setting [8]; 113 % of control under setting [9]; 109 % of control under setting [5]; 117 % of control under setting [10]; 117 % of control under setting [7]; 118 % of control under setting [11].
On to `CN1/C(=C/C=C/N=C(C#N)C#N)C(C)(C)c2ccccc21`, for which the T/C reads like this: under setting [9], 104 % of control; under setting [10], 96 % of control; (dose: 200.0 mg/kg/injection, schedule: Q01DX009 (ip), vehicle: saline with Tween-80) 96 % of control.
In the case of `CCOc1ccccc1CC(=O)O`, the T/C under setting [6] was 100 % of control, the T/C under setting [7] was 100 % of control and the T/C under setting [11] was 104 % of control.
